# According to US20260272908A1 (VANDERBILT UNIVERSITY, priority 2023, published 2026):
# “Also recorded” adds a separate entry of the source.
# What was measured:
# p-ERK = assay: Western blot for phospho-ERK in hPCO lines; type: cell-based, human
# Source text: (§1) FIG. 7C-7D show Western blot analysis for p-STAT3 and p-ERK in three Pyr-resistant hPCO lines after Pyr treatment (FIG. 7C) and ratios of p-STAT3/t-STAT3 and p-ERK/t-ERK (FIG. 7D). FIG. 7E-7F show a Western blot for basal p-STAT3 and p-ERK levels in Pyr-sensitive and Pyr-resistant hPCO lines (FIG. 7E), and ratios of p-STAT3/t-STAT3 and p-ERK/t-ERK (FIG. 7F). FIG. 7G-7H show a Western blot for p-STAT3 and p-ERK in hPCO-3 after treatment of trametinib (Tra), Pyr, and their combinations (FIG. 7G), and ratios of p-STAT3/t-STAT3 and p-ERK/t-ERK (FIG. 7H). […] FIG. 7K-7L show phase-contrast images of Pyr-sensitive hPCO-2 treated with DMSO, Pyr, STAT3-IN-1, Sttatic, and Cryptotanshinone (CPT) for 6 days (FIG. 7K) and quantitation of organoid diameters before and after treatment (FIG. 7L). Mean±standard deviation. […]
# (§2) Total proteins were extracted from organoids using radioimmunoprecipitation assay buffer (10 mmol/L Tris-HC, pH 7.2, 150 mmol/L NaCl, 5 mmol/L EDTA, 0.1% sodium dodecyl sulfate, 1.0% Triton X-100, 1% deoxycholate) with protease inhibitors. The protein concentration was measured The Bio-Rad Protein Assay (Bio-Rad Laboratories, Hercules, CA). […] After washes with TBS-T, chemiluminescence was detected with an Amersham Imager 680 instrument (GE Healthcare) after 1 mL of the SuperSignal West Femto Maximum Sensitivity Substrate (ThermoFisher) was applied to the membranes.
# phospho-ERK (p-ERK) = assay: Western blot for phospho-ERK in Meta3 and Meta4 organoids; type: cell-based, mouse
# Experimental: (§3) FIG. 3C-3D show the Western blot analysis for p-STAT3 and p-ERK in Meta3 and Meta4 organoids (FIG. 3C) and ratios of p-STAT3/total STAT3 and p-ERK/total ERK (FIG. 3D). […] FIG. 3F-3G show phase-contrast images of Meta4 organoids treated with DMSO, Pyr (100 nM), STAT3-IN-1 (1 μM), Stattic (2 μM), and Cryptotanshinone (CPT) (5 μM) for 3 days (FIG. 3F), and quantitation of organoid diameters before and after treatment (FIG. 3G). FIG. 3H-3I show phase-contrast images of Meta4 organoids treated with DMSO, trametinib (Tra), STAT3-IN-1, combination of Tra and STAT3-IN-1, and Pyr, for 3 days (FIG. 3H), and quantitation of organoid diameters before and after treatment (FIG. 3I). FIG. 3J-3K show western blot for p-STAT3 and p-ERK after treatment of Tra, Pyr, and SSTC3 (FIG. 3J) and ratios of p-STAT3/t-STAT3 and p-ERK/t-ERK (FIG. 3K). […] Relative quantification of each gene expression level was normalized to GAPDH gene expression. Shading scale represents the mRNA expression values. FIG. 3M show representative mRNA of Pim-1 and Cyclin-B1 after treatment. Mean±standard deviation. […] Scale bar=500 μM.
# as §2, with “CA). 5 to 10 μg of total protein was loaded onto 12.5% or 10% sodium dodecyl sulfate/polyacrylamide gel electrophoresis (PAGE) and transferred onto polyvinylidene difluoride membranes (Millipore, Billerica, MA).” for “CA).”
# CD133 and CD166 = assay: qRT-PCR of dysplastic stem cell markers in Meta4 organoids; type: cell-based, mouse; conditions: pyrvinium-treated vs DMSO
# Experimental: FIG. 4D-4E show lusters of dysplastic stem cells (DSCs) differentiated cells or damaged cells in a superimposed UMAP plot (FIG. 4D) and their proportions in DMSO-treated and Pyr-treated Meta4 samples (FIG. 4E).
# Total RNAs were extracted from Meta3 or Meta4 organoids using the Trizol (Invitrogen) reagent. cDNAs were synthesized using iScript gDNA clear cDNA synthesis kit (Bio-Rad) and RT-PCR was performed using SsoAdvanced™ Universal SYBR Green supermix (Bio-Rad) and a CFX96 Real-Time PCR Detection System (Bio-Rad). GAPDH, a house keeping gene, was used to normalize gene expression levels. All reactions were performed in triplicate and relative gene expression levels were obtained by the comparative ΔΔCt method using CFX Maestro software (Bio-Rad).
# Meta4 organoids = conditions: pyrvinium, 1 day
# Meta3 organoids = assay: Meta3 metaplastic organoid growth and survival (organoid diameter, phase-contrast); type: cell-based, mouse; conditions: trametinib 1 μM, pyrvinium 100 nM, 3 days
# Experimental: All experiments were repeated at least three times.
# All experiments were performed at least in triplicate.
# [1] = test system: human pre-cancerous organoid (hPCO) lines; assay: Human precancerous organoid (hPCO) growth and organoid death
# Experimental: To establish human pre-cancer organoids (hPCO), fresh tissues were obtained from the gastric cancer patients who underwent curative gastrectomy at SNUH (IRB No. H-1806-166-954).
# Meta3, Meta4, and hPCO organoids were cultured in Matrigel (ECM, Sigma) with Mouse or Human IntestiCult medium (StemCell Technology) supplemented with 1% of penicillin/streptomycin (Gibco) in 48-well plates and medium was replaced every 3 days. The organoids were split every 5-7 days before they formed budding structures.
# Mouse or human organoids were split and cultured in the Mouse or Human IntestiCult media for 1-2 days until they formed three-dimensional (3D) spherical structures, then the media was switched to media containing either DMSO vehicle or a certain concentration of each drug and cultured for 3 days. The EVOS M7000 inverted microscope were used to obtain phase contrast images of organoids. All experiments were repeated at least three times.
# The number and diameters of mouse and human organoids treated with drugs were manually counted and measured at day 0 and 3 or 6 after treatment from four entire well images of each condition at 4× magnification. For counting live or dead cells, organoids were stained with Calcein AM for live cells and EthD-1 for dead cells 3 days after treatment and the number of EthD-1 positive organoids were manually counted from images taken from three wells of each condition at 4× magnification. All experiments were performed at least in triplicate. The mean values from each condition were compared by Student's paired or unpaired t-test using Graphpad Prism. *P<0.05, **P<0.01, ***P<0.001, ****P<0.0001.
# wild-type mice = assay: Histopathology of major organs in wild-type mice; type: in vivo, mouse; conditions: 4 mg/L in drinking water, 2 weeks
# Experimental: Hematoxylin and eosin images were obtained from wild-type mice treated with either dimethyl sulfoxide (DMSO) or Pyr (4 mg/L in drinking water) for a duration of 2 weeks. Scale bar=100 μm.
# One or two weeks after either DMSO or pyrvinium treatment, gastric mucosa in each group of mice was examined.
# p-STAT3^Y705 = assay: Western blot for phospho-STAT3 in hPCO lines; type: cell-based, human
# Source text: as §1, §2
# STAT3-target genes = assay: Quantitative real time-PCR for STAT3 target genes in Meta4 organoids; type: cell-based, mouse; conditions: pyrvinium 100 nM
# Experimental: as §3
# Two-tailed Mann-Whitney test.
# [2] = three pyrvinium-resistant hPCO lines
# [3] = three pyrvinium-sensitive hPCO lines
smiles,measurement,setting,value
Cc1cc(/C=C/c2ccc3cc(N(C)C)ccc3[n+]2C)c(C)n1-c1ccccc1 [pyrvinium],p-ERK levels,p-ERK; [2],no significant differences
same,p-ERK levels,p-ERK; [3],decreased
same,phosphorylation of ERK,phospho-ERK (p-ERK); Meta3,reduced phosphorylation
same,p-ERK levels,"phospho-ERK (p-ERK); Meta4, 3 days",significant decrease
same,CD133 and CD166 gene expression,CD133 and CD166,decreases
same,DSC (dysplastic stem cell) subpopulation,Meta4 organoids,not observed
same,"STAT3-target genes Fos, Fosb, and Jun",Meta4 organoids,downregulated
same,binding and transcription regulator activities (PANTHER gene ontology),Meta4 organoids,decreased
same,cells damaged and mostly differentiated cells among treated cells,Meta4 organoids,over 73.9%
same,"damage-related genes Dusp4, Ddit3 and Areg",Meta4 organoids,upregulated
same,organoid size compared to control organoids treated with DMSO,Meta3 organoids,significant reduction in size
same,growth of metaplastic cells in hPCO lines,[1]; hPCO with metaplastic features,growth arrest
same,number of hPCO lines classified pyrvinium-moderate,"[1]; of twenty hPCO lines, 6 days",six
same,number of hPCO lines classified pyrvinium-resistant,"[1]; of twenty hPCO lines, 6 days",nine
same,number of hPCO lines classified pyrvinium-sensitive,"[1]; of twenty hPCO lines, 6 days",Five
same,"histopathology of major organs (stomach, esophagus, liver, kidney, heart, lung, spleen)",wild-type mice,did not induce any noticeable histopathological abnormalities; also recorded: unaffected
same,p-STAT3^Y705 levels,p-STAT3^Y705; [2],no significant differences
same,p-STAT3^Y705 levels,p-STAT3^Y705; [3],decreased
same,"expression of several STAT3-target genes, including Cyclin B1 and Pim-1",STAT3-target genes,downregulated
